From patent US20220016215A1, “GIP RECEPTOR AGONIST PEPTIDE COMPOUNDS AND USES THEREOF” (TAKEDA PHAARMACEUTICAL COMPANY LIMITED, priority 2018, published 2022)
Marks after values point to notes of the source that are not given here. Non-standard residues stand in square brackets, D forms with d. Groups on a side chain read outwards from the residue. No end group written: not given here. *: point of attachment. C15 diacid = O=C(O)CCCCCCCCCCCCCC(=O)*; Palmitoyl = CCCCCCCCCCCCCCCC(=O)*; Aib = CC(C)(N)C(=O)O

Tests used:
[1] = system: morphine (0.6 mg/kg, s.c.)-induced emesis in ferrets; experiment: Morphine-induced acute emetic model in male ferrets; format: in vivo, ferret; conditions: for Emesis: Duration / Emesis: Frequency / Emesis: No. of animals (responder/used) / Fidget: Duration / Fidget: Frequency / Fidget: No. of animals (responder/used) / Licking: Duration / Licking: Frequency / Licking: No. of animals (responder/used) / Retching: Duration / Retching: Frequency / Retching: No. of animals (responder/used) / Vomiting: Duration / Vomiting: Frequency / Vomiting: No. of animals (responder/used) / Emesis: Latency / Fidget: Latency / Licking: Latency / Retching: Latency / Vomiting: Latency: morphine 0.6 mg/kg s.c. 0.5 h after drug, 106-[…] s.c. (30 nmol/kg); for Emesis: Latency / Fidget: Latency / Licking: Latency / Retching: Latency / Vomiting: Latency: non-responders counted as 30 min; for Attenuation of morphine-induced emesis (in words) / Comment: Anti-Emetic Activity (inhibition) on morphine-induced emesis: male ferrets; for Attenuation of morphine-induced emesis (in words): 30 nmol/kg s.c. 30 minutes before morphine 0.6 mg/kg s.c.; for Comment: Anti-Emetic Activity (inhibition) on morphine-induced emesis: summary of the morphine experiments
Protocol: Example 6—In-Vivo Effect of GIP Receptor Agonist Peptides on Emesis in Morphine Induced Emesis Model in Live Male Ferrets
Effect of subcutaneously administered GIP receptor agonist peptide in morphine-induced acute emetic model.
To evaluate the antiemetic effect, the GIP receptor agonist peptides other than natural human GIP were subcutaneously administered into male ferrets 30 minutes before morphine administration. […]. Up to 60 minutes after morphine administration, the condition of the ferrets was monitored to record the frequencies and time points of abdominal contraction motions, vomiting behaviors, licking with the tongue, and fidgety behavior occurring
Effects of Subcutaneously Administered GIP Receptor Agonist Peptides in Morphine-Induced Acute Emetic Model
30 nmol/kg of Compounds 3 and 5 were dissolved with a vehicle (0.09 w/v % tween 80/10% DMSO/saline), respectively, to prepare test solutions. […] of the test solutions and the vehicle were subcutaneously administered to ferrets (4 in each group), respectively. At the time of each of 4 hours, after administration, 0.6 mg/kg of morphine was subcutaneously administered. […] See results in Tables 6, 7 and 8.
(§1) 10 nmol/kg of each compound dissolved with a vehicle (0.09 w/v % tween 80/10% DMSO/saline) respectively, to prepare test solutions. […] of the test solutions and the vehicle were subcutaneously administered to ferrets (4 in each group), respectively. At the time of each of 4 hours, or 120 hours after administration, 0.6 mg/kg of morphine was subcutaneously administered. Up to 360 minutes after morphine administration, the condition of the ferrets was monitored to record the frequencies and time points of abdominal contraction motions, vomiting behaviors, licking with the tongue, and fidgety behavior occurring.
as §1, with “30 nmol/kg” for “10 nmol/kg”, “80/10% DMSO/saline),respectively,” for “80/10% DMSO/saline) respectively,”

[2] = molecular target: T1, human GIPR (human, UniProt P48546 22-466); experiment: cell-based or functional assay
T1 sequence (looked up): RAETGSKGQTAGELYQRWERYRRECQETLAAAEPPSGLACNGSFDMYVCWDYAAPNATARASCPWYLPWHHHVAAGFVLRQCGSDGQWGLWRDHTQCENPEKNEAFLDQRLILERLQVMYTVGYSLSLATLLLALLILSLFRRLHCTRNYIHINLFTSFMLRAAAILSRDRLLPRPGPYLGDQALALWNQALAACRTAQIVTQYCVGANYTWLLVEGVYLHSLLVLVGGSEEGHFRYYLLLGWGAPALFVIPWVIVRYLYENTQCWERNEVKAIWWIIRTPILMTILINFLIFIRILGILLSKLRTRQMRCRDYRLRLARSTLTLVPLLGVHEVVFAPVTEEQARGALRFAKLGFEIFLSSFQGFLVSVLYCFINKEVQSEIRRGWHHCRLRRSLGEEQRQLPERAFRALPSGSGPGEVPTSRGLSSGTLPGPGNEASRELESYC

[3] = molecular target: human GLP-1R (human, UniProt P43220 24-463); experiment: cell-based or functional assay

## Ac-(D-Tyr)AEGTFISDYSIAMDAIHQQDFVNWLLAQLys-(palmitoyl acyl fatty acid)-NH2 (Ac-[dY]AEGTFISDYSIAMDAIHQQDFVNWLLAQK(Palmitoyl)-NH2; SMILES CCCCCCCCCCCCCCCC(=O)NCCCC[C@H](NC(=O)[C@H](CCC(N)=O)NC(=O)[C@H](C)NC(=O)[C@H](CC(C)C)NC(=O)[C@H](CC(C)C)NC(=O)[C@H](Cc1c[nH]c2ccccc12)NC(=O)[C@H](CC(N)=O)NC(=O)[C@@H](NC(=O)[C@H](Cc1ccccc1)NC(=O)[C@H](CC(=O)O)NC(=O)[C@H](CCC(N)=O)NC(=O)[C@H](CCC(N)=O)NC(=O)[C@H](Cc1c[nH]cn1)NC(=O)[C@@H](NC(=O)[C@H](C)NC(=O)[C@H](CC(=O)O)NC(=O)[C@H](CCSC)NC(=O)[C@H](C)NC(=O)[C@@H](NC(=O)[C@H](CO)NC(=O)[C@H](Cc1ccc(O)cc1)NC(=O)[C@H](CC(=O)O)NC(=O)[C@H](CO)NC(=O)[C@@H](NC(=O)[C@H](Cc1ccccc1)NC(=O)[C@@H](NC(=O)CNC(=O)[C@H](CCC(=O)O)NC(=O)[C@H](C)NC(=O)[C@@H](Cc1ccc(O)cc1)NC(C)=O)[C@@H](C)O)[C@@H](C)CC)[C@@H](C)CC)[C@@H](C)CC)C(C)C)C(N)=O) [Compound 7]
[1]; ferrets, morphine administered 4 hours after administration
  Ferrets in which the vomiting symptom was observed (in words): all of the 4 ferrets

## CC[C@H](C)[C@H](NC(=O)[C@H](CO)NC(=O)[C@H](Cc1ccc(O)cc1)NC(=O)[C@H](CC(=O)O)NC(=O)[C@H](CO)NC(=O)[C@@H](NC(=O)[C@H](Cc1ccccc1)NC(=O)[C@@H](NC(=O)CNC(=O)[C@H](CCC(=O)O)NC(=O)[C@@H](C)NC(=O)[C@@H](N)Cc1ccc(O)cc1)[C@@H](C)O)[C@@H](C)CC)C(=O)N[C@@H](C)C(=O)N[C@@H](CCSC)C(=O)N[C@@H](CC(=O)O)C(=O)N[C@@H](CCCCN)C(=O)N[C@H](C(=O)N[C@@H](Cc1c[nH]cn1)C(=O)N[C@@H](CCC(N)=O)C(=O)N[C@@H](CCC(N)=O)C(=O)N[C@@H](CC(=O)O)C(=O)N[C@@H](Cc1ccccc1)C(=O)N[C@H](C(=O)N[C@@H](CC(N)=O)C(=O)N[C@@H](Cc1c[nH]c2ccccc12)C(=O)N[C@@H](CC(C)C)C(=O)N[C@@H](CC(C)C)C(=O)N[C@@H](C)C(=O)N[C@@H](CCC(N)=O)C(=O)N[C@@H](CCCCN)C(=O)O)C(C)C)[C@@H](C)CC [Compound 4]
[1]; ferrets
  Emesis: Duration: 0.0 ± 0.0 min
  Emesis: Frequency: 0.0 ± 0.0
  Emesis: No. of animals (responder/used): 0/4 #
  Fidget: Duration: 0.0 ± 0.0 min
  Fidget: Frequency: 0.0 ± 0.0
  Fidget: No. of animals (responder/used): 0/4
  Licking: Duration: 0.0 ± 0.0 min
  Licking: Frequency: 0.0 ± 0.0
  Licking: No. of animals (responder/used): 0/4 #
  Retching: Duration: 0.0 ± 0.0 min
  Retching: Frequency: 0.0 ± 0.0
  Retching: No. of animals (responder/used): 0/4 #
  Vomiting: Duration: 0.0 ± 0.0 min
  Vomiting: Frequency: 0.0 ± 0.0
  Vomiting: No. of animals (responder/used): 0/4
  Emesis: Latency: 30.0 ± 0.0 min
  Fidget: Latency: 30.0 ± 0.0 min
  Licking: Latency: 30.0 ± 0.0 min
  Retching: Latency: 30.0 ± 0.0 min
  Vomiting: Latency: 30.0 ± 0.0 min
[1]
  Attenuation of morphine-induced emesis (in words): completely attenuated
  Comment: Anti-Emetic Activity (inhibition) on morphine-induced emesis: 100% inhibition

## CC[C@H](C)[C@H](NC(=O)[C@H](CO)NC(=O)[C@H](Cc1ccc(O)cc1)NC(=O)[C@H](CC(=O)O)NC(=O)[C@H](CO)NC(=O)[C@@H](NC(=O)[C@H](Cc1ccccc1)NC(=O)[C@@H](NC(=O)CNC(=O)[C@H](CCC(=O)O)NC(=O)[C@@H](C)NC(=O)[C@@H](N)Cc1ccc(O)cc1)[C@@H](C)O)[C@@H](C)CC)C(=O)N[C@@H](C)C(=O)N[C@@H](CCSC)C(=O)N[C@@H](CC(=O)O)C(=O)N[C@@H](CCCCN)C(=O)N[C@H](C(=O)N[C@@H](Cc1c[nH]cn1)C(=O)N[C@@H](CCC(N)=O)C(=O)N[C@@H](CCC(N)=O)C(=O)N[C@@H](CC(=O)O)C(=O)N[C@@H](Cc1ccccc1)C(=O)N[C@H](C(=O)N[C@@H](CC(N)=O)C(=O)N[C@@H](Cc1c[nH]c2ccccc12)C(=O)N[C@@H](CC(C)C)C(=O)N[C@@H](CC(C)C)C(=O)N[C@@H](C)C(=O)N[C@@H](CCC(N)=O)C(=O)N[C@@H](CCCCN)C(=O)N1CCC[C@H]1C(=O)N[C@@H](CO)C(=O)N[C@@H](CO)C(=O)NCC(=O)N[C@@H](C)C(=O)N1CCC[C@H]1C(=O)N1CCC[C@H]1C(=O)N1CCC[C@H]1C(=O)N[C@@H](CO)C(N)=O)C(C)C)[C@@H](C)CC [Compound 11]
[1]; ferrets
  Emesis: Duration: 0.0 ± 0.0 min
  Emesis: Frequency: 0.0 ± 0.0
  Emesis: No. of animals (responder/used): 0/4 #
  Fidget: Duration: 0.0 ± 0.0 min
  Fidget: Frequency: 0.0 ± 0.0
  Fidget: No. of animals (responder/used): 0/4
  Licking: Duration: 0.0 ± 0.0 min
  Licking: Frequency: 0.0 ± 0.0
  Licking: No. of animals (responder/used): 0/4 #
  Retching: Duration: 0.0 ± 0.0 min
  Retching: Frequency: 0.0 ± 0.0
  Retching: No. of animals (responder/used): 0/4 #
  Vomiting: Duration: 0.0 ± 0.0 min
  Vomiting: Frequency: 0.0 ± 0.0
  Vomiting: No. of animals (responder/used): 0/4
  Emesis: Latency: 30.0 ± 0.0 min
  Fidget: Latency: 30.0 ± 0.0 min
  Licking: Latency: 30.0 ± 0.0 min
  Retching: Latency: 30.0 ± 0.0 min
  Vomiting: Latency: 30.0 ± 0.0 min
[1]
  Attenuation of morphine-induced emesis (in words): completely attenuated
  Comment: Anti-Emetic Activity (inhibition) on morphine-induced emesis: 100% inhibition

## Y[Aib]EGTFISDYSIALDKIHQQDFVNWLLAQK([ethylene glycol-ethylene glycol-C15 diacid])G-OH [Compound No. 31]
[2]
  GIPR EC50 nM (A): 0.002 nM

## YXEGTFISDYSIAMDKIHQQDFVNWLLAQKGKKNDWKHNITQK (Aib at 2; Lys-(gamma-glutamic acid)3-palmitoyl at 43; C-terminal -OH) [Compound No. 19]
[3]
  GLP1R pEC50: 8.26

## Y[Aib]EGTFISDYSIALDKIHQQK([ethylene glycol-ethylene glycol-C15 diacid])FVNWLLAQRG-OH [Compound No. 24]
[2]
  GIPR EC50 nM (A): < 0.001 nM

## Ac-YAEGTFISDYSIAMDKIHQQDFVNWLLAQKGKKNDWKHNIIQ-OH [Compound No. 1]
[2]
  GIPR EC50 nM (A): 0.01 nM
  GIPR pEC50: 11
[3]
  GLP1R EC50 nM (B): 302 nM
  GLP1R pEC50: 6.5

## Y[dA]EGTFISDYSIAMDKIHQQDFVNWLLAQK-OH [Compound No. 4]
[3]
  GLP1R EC50 nM (B): 355 nM
  GLP1R pEC50: 6.5

## Y[Aib]EGTFISDYSIALDKIHQQK([ethylene glycol-ethylene glycol-C15 diacid])FVNWLLAQR-NH2 [Compound No. 28]
[2]
  GIPR EC50 nM (A): < 0.001 nM

## Y[dA]EGTFISDYSIAMDKIHQQDFVNWLLAQKGKKNDWK(Palmitoyl)HNIIQ-NH2 [Compound No. 2]
[3]
  GLP1R EC50 nM (B): 5 nM
  GLP1R pEC50: 8.3
